# In PubChem BioAssay AID850 (SRMLSC, 2007):
# Calls of active or inactive are those of the source. No rule for the calls is given here.
# Tests used:
# [1] = concentration-response yeast growth inhibition under permissive conditions, counter-assay for yeast lifespan-shortening chemical project (AID 850); settings: Saccharomyces cerevisiae growth inhibition, permissive control, measured here: maximum growth inhibition, stronger effect = higher value;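 also: growth read as optical density after one day of incubation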
# [2] = tested on: Saccharomyces cerevisiae growth inhibition, permissive control; assay: as above
Structure (SMILES),inhibition ([1]; at 50 µM),IC50 [2],also measured
COc1ccc(OC)c(-c2c3cc(O)c(=O)cc-3oc3cc(O)c(O)cc23)c1,63.5%,28.1 µM,
O=C1Cc2ccccc2C(=O)N1CCc1ccccc1,,> 100 µM (inactive),inhibition ([1]; at 0.781 µM): 20.7%
CNC(=O)Oc1cccc(-c2cn3cc(OC(=O)NC)ccc3n2)c1,97.6%,6.45 µM,
COc1ccc2cc(C(=O)O)ccc2c1,72.1%,20.5 µM,
Cc1ccccc1C(=O)O/N=C/c1c(N2CCOCC2)n(C)c2ccccc12,57.1%,50.7 µM,
S=C(Nc1ccc(Oc2ccccc2)cc1)NC1CCCCCC1,,> 100 µM (inactive),inhibition ([1]; at 0.391 µM): 19.9%
CCN1/C(=C(\O)c2ccccc2)C(=O)c2ccccc2S1(=O)=O,,> 100 µM (inactive),inhibition ([1]; at 1.563 µM): 19.4%
CC(C)(CNC(=S)NCCc1ccccc1)CNC(=S)NCCc1ccccc1,,> 100 µM (inactive),inhibition ([1]; at 0.391 µM): 23.5%
COc1cccc(CC(=O)Nc2ccc3nc(C)sc3c2)c1,96.5%,16 µM,
O=[N+]([O-])c1ccc(O)c(/C=N/Nc2ccccn2)c1,,> 100 µM (inactive),inhibition ([1]; at 0.781 µM): 16.1%
OC(COc1ccc2ccccc2c1Br)Cn1cnc(-c2ccccc2)c1 (configuration not stated),20.9%,> 100 µM (inactive),
CC(=O)n1cc(C(C[N+](=O)[O-])SCCN)c2ccccc21 (configuration not stated),100%,13.9 µM,
NNC(=O)c1ccc(COc2cccc3ccccc23)cc1,94.7%,20 µM,
c1ccc(-c2csc3nnc(SCc4ccc5c(c4)OCO5)n23)cc1,,> 100 µM (inactive),inhibition ([1]; at 0.781 µM): 9.45%
Cc1nc2cc3ccccc3cc2c(=O)[nH]1,,> 100 µM (inactive),inhibition ([1]; at 0.781 µM): 13.9%
Clc1ccc(CSC(Cn2ccnc2)c2ccc(Cl)cc2Cl)cc1 (configuration not stated),99.4%,0.365 µM,

Structure (SMILES),inhibition ([1]; at 50 µM),IC50 [2],also measured
COc1ccc2c(c1)[nH]c1c(Cl)ncnc12,,> 100 µM (inactive),inhibition ([1]; at 0.195 µM): 21.3%
CCOC(=O)/C(=N\Nc1cccc(C(F)(F)F)c1)N(CCOC)CCOC,,> 100 µM (inactive),inhibition ([1]; at 12.5 µM): -1.36%
CN1C(=O)c2cccc3c(Cl)ccc(c23)C1=O,19.1%,> 100 µM (inactive),
Cn1c(/C=C/c2ccc([N+](=O)[O-])o2)nc2ccccc2c1=O,47.5%,51.4 µM,
Cc1ccc(-n2nnc3c(=O)n(CC(=O)N4CCC(C)CC4)cnc32)cc1,,> 100 µM (inactive),inhibition ([1]; at 25 µM): 17.4%
O=C(N/N=C/c1cc2c3c(c1O)CCCN3CCC2)c1ccccc1O,49.5%,48.1 µM,
O=C(CCSc1nnc(-c2ccncc2)o1)Nc1ccc(Cl)cc1,,8.46 µM,inhibition ([1]; at 12.5 µM): 86.9%
Clc1cc2nc3ccccn3c2cc1Cl,16%,> 100 µM (inactive),
CN1C(=O)C(O)(CC(=O)c2ccccc2O)c2cc(Br)ccc21 (configuration not stated),,> 100 µM (inactive),inhibition ([1]; at 0.195 µM): 17.2%
O=C(O)c1cc2ccc3ccccc3c2oc1=O,64.3%,32 µM,
CCN(CC)S(=O)(=O)c1ccc(NC(=O)CSc2cccc[n+]2[O-])cc1,90.1%,31.6 µM,
O=C(CSc1cccc[n+]1[O-])c1cc2ccccc2o1,99.2%,3.68 µM,
Clc1ccc(COC(Cn2ccnc2)c2ccc(Cl)cc2Cl)cc1 (configuration not stated),100%,0.705 µM,
N#Cc1ccccc1NC(=O)c1ccc2c(Cl)c3c(nc2c1)CCCC3,,> 100 µM (inactive),inhibition ([1]; at 3.125 µM): 13.6%
CC1=NOC(=O)/C1=C\c1ccc(-c2ccc(Cl)cc2Cl)o1,80.5%,32.3 µM,
